# Entries after “also recorded” stand apart in the source; their conditions may differ.
# Tests used:
# [1] = test system: histamine-induced lethality; experiment: preventing histamine-induced lethality in the guinea-pig; assay type: in vivo
# [2] = test system: cutaneous capillary permeability induced by histamine; experiment: antagonism against cutaneous capillary permeability induced by histamine in the rat; assay type: in vivo
# [3] = stability of the crystalline polymorphic forms of bilastine; assay type: physicochemical
smiles,measurement,setting,value
"CCOCCn1c(C2CCN(CCc3ccc(C(C)(C)C(=O)O)cc3)CC2)nc2ccccc21 [crystalline form 1, 4-[2-[4-[1-(2-ethoxyethyl)-1H benzimidazole-2-yl]-1-piperidinyl]ethyl]-αα-dimethyl-benzeneacetic acid]",antihistaminic properties: histamine-induced lethality,[1],preventing histamine-induced lethality
same,antihistaminic properties: cutaneous capillary permeability induced by histamine,[2],antagonism against cutaneous capillary permeability induced by histamine
same,stability of the crystalline form,[3],stable; also recorded: very stable
same,transformation into the other polymorphs,[3],not transformed into any of the other polymorphs 2 and 3
same,stability of the polymorph at room temperature,[3]; room temperature,very stable
same,stability when stored at temperatures above room temperature,[3]; stored at temperatures above room temperature,stable
"CCOCCn1c(C2CCN(CCc3ccc(C(C)(C)C(=O)O)cc3)CC2)nc2ccccc21 [crystalline form 3, 4-[2-[4-[1-(2-ethoxyethyl)-1H benzimidazole-2-yl]-1-piperidinyl]ethyl]-αα-dimethyl-benzeneacetic acid]",stability of the crystalline form,[3],not very stable; also recorded: the most unstable
"CCOCCn1c(C2CCN(CCc3ccc(C(C)(C)C(=O)O)cc3)CC2)nc2ccccc21 [crystalline form 2, 4-[2-[4-[1-(2-ethoxyethyl)-1H benzimidazole-2-yl]-1-piperidinyl]ethyl]-αα-dimethyl-benzeneacetic acid]",stability of the crystalline form,[3],stable
